Experimental data from ChEMBL document CHEMBL4184317, “Discovery of Tetrahydroquinoxalines as Bromodomain and Extra-Terminal Domain (BET) Inhibitors with Selectivity for the Second Bromodomain” (J Med Chem, 2018).
pIC50, pKd: −log10 of the molar value.

Experiments:
[1] = biological target: Bromodomain-containing protein 8 (Homo sapiens, UniProt Q9H0E9); test: Binding affinity to DNA-tagged BRD8 (unknown origin) by BROMOscan method
Blood = test: Antiinflammatory activity in human whole blood assessed as inhibition of LPS-induced MCP1 release preincubated for 30 mins followed by LPS challenge measured after 24 hrs by immunoassay; assay type: functional, tissue-based
[2] = biological target: SWI/SNF-related matrix-associated actin-dependent regulator of chromatin subfamily A member 4 (Homo sapiens, UniProt P51532); test: Binding affinity to human partial length DNA-tagged SMARCA4 expressed in bacteria by BROMOscan method
[3] = biological target: ATPase family AAA domain-containing protein 2 (Homo sapiens, UniProt Q6PL18); test: Binding affinity to human partial length DNA-tagged ATAD2A expressed in bacterial by BROMOscan method
Peregrin [4] = biological target: T1, Peregrin (Homo sapiens, UniProt P55201); test: Displacement of Alexa 647 ligand from 6H-Flag-Tev-BRPF1 (622 to 738 residues) (unknown origin) expressed in Escherichia coli BL21 (DE3) cells after 30 mins by TR-FRET assay
T1 sequence (P55201 whole entry): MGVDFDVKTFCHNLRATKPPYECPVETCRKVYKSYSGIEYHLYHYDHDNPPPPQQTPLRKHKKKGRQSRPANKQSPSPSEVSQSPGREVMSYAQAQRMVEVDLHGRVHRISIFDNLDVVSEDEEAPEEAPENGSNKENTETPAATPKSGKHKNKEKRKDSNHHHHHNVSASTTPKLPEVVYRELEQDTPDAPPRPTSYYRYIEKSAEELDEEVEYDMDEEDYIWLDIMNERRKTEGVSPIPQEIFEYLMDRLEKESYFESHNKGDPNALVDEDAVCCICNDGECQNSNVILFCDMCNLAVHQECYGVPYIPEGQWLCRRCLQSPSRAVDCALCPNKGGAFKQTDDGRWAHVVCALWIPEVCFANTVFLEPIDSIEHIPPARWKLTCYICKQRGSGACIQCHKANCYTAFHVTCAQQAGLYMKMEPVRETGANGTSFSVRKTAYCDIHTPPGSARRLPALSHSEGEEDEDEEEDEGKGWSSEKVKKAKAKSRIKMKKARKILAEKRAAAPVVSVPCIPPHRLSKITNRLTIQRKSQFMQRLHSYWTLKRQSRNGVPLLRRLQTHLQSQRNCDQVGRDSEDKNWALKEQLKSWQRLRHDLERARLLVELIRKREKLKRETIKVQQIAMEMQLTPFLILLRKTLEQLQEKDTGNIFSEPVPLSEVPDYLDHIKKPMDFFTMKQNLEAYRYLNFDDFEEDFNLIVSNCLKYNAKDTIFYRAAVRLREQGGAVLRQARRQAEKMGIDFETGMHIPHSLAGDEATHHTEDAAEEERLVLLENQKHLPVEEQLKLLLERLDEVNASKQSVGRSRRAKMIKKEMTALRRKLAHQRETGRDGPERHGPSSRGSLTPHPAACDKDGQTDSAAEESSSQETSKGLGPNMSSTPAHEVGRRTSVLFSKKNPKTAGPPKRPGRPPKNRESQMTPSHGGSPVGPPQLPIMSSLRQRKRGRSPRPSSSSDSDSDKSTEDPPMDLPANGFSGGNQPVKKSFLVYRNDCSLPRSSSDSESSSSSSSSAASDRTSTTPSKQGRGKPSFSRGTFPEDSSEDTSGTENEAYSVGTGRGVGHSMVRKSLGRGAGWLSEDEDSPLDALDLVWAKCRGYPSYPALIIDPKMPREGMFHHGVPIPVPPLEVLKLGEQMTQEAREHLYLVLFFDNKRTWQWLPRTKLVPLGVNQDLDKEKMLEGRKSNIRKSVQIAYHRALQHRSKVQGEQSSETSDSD

Homo sapiens [5] = species: Homo sapiens; test: Selectivity ratio of IC50 for BRD3 BD1 (unknown origin) to IC50 for BRD3 BD2 (unknown origin)
[6] = biological target: Bromodomain-containing protein 9 (Homo sapiens, UniProt Q9H8M2); test: Binding affinity to human partial length DNA-tagged BRD9 isoform 1 expressed in bacteria by BROMOscan method
Bromodomain-containing protein 9, sequence (Q9H8M2 whole entry, canonical isoform): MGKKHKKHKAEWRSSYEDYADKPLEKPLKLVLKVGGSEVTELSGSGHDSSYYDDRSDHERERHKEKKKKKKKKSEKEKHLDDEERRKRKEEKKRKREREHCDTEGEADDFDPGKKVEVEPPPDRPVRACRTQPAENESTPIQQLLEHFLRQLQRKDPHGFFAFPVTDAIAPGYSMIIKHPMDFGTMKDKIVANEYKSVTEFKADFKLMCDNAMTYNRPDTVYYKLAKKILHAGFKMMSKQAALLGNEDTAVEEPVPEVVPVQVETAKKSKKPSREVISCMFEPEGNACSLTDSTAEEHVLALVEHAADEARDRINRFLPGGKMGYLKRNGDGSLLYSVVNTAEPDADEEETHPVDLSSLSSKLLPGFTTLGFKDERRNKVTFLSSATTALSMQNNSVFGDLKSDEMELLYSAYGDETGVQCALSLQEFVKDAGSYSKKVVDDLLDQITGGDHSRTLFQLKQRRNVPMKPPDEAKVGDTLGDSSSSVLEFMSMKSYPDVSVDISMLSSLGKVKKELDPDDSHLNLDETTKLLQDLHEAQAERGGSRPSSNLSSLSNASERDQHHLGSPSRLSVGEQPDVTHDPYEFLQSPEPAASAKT

[7] = biological target: Bromodomain-containing protein 1 (Homo sapiens, UniProt O95696); test: Binding affinity to human partial length DNA-tagged BRD1 expressed in bacterial by BROMOscan method
[8] = biological target: Bromodomain-containing protein 7 (Homo sapiens, UniProt Q9NPI1); test: Binding affinity to human partial length DNA-tagged BRD7 expressed in mammalian expression system by BROMOscan method
Bromodomain-containing protein 7, sequence (Q9NPI1 whole entry): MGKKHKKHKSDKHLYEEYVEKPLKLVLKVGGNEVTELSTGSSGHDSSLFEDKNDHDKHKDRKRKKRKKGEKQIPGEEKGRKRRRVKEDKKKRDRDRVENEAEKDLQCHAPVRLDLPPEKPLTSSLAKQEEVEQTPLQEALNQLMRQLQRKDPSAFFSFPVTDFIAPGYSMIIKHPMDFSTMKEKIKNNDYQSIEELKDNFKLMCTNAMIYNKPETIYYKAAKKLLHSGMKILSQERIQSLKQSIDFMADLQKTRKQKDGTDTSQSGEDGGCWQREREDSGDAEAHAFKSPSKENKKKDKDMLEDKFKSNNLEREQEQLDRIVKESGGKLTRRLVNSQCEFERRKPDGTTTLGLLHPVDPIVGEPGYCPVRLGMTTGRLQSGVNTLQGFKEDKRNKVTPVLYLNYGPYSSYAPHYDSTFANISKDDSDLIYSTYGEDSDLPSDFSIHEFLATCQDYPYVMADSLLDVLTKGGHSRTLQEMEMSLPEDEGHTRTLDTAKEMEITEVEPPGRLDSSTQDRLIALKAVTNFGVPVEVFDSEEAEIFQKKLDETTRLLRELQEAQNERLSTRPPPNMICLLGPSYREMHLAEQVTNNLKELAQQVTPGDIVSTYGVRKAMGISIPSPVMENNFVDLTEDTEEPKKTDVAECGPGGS

PBMC = test: cells; settings: Homo sapiens, read-out: pIC50 (converted)
Description: Antiinflammatory activity in human PBMC assessed as inhibition of LPS-induced MCP1 release preincubated for 30 mins followed by LPS challenge measured after 24 hrs by immunoassay

[9] = biological target: T2, Bromodomain-containing protein 3 (Homo sapiens, UniProt Q15059); test: Inhibition of BRD3 BD2 (unknown origin) after 30 mins by TR-FRET assay
Target sequence in this assay (Q15059 whole entry): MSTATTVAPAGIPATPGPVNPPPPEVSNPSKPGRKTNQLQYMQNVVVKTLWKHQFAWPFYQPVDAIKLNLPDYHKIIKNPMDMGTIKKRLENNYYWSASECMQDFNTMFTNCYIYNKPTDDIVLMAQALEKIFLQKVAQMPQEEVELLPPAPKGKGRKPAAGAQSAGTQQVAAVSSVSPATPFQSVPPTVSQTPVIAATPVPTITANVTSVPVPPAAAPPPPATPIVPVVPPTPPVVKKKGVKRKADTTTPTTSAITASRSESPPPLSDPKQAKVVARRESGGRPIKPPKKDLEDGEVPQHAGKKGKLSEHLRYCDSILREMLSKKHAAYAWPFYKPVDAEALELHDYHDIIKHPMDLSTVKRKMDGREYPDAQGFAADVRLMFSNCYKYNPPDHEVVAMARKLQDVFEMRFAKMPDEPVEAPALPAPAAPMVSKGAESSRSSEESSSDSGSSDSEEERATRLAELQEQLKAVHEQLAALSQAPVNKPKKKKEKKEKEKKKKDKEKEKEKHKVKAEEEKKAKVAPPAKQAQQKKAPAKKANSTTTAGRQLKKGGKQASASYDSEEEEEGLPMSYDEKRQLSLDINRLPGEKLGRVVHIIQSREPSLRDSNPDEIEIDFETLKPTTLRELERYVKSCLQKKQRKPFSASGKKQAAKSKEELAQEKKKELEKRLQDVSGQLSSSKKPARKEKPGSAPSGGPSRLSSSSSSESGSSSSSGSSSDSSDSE

[10] = biological target: Bromodomain and WD repeat-containing protein 1 (Homo sapiens, UniProt Q9NSI6); test: Binding affinity to human partial length DNA-tagged […] BD2 expressed in bacterial by BROMOscan method
[11] = biological target: T3, Bromodomain testis-specific protein (Homo sapiens, UniProt Q58F21); test: Inhibition of BRDT BD1 (unknown origin) after 30 mins by TR-FRET assay
[12] = biological target: Bromodomain adjacent to zinc finger domain protein 2B (Homo sapiens, UniProt Q9UIF8); test: Binding affinity to human partial length DNA-tagged BAZ2B expressed in bacterial by BROMOscan method
Protein polybromo-1 = Protein polybromo-1 (Homo sapiens, UniProt Q86U86); test: Binding affinity to human partial length DNA-tagged PBRM1 BD1 expressed in bacteria by BROMOscan method
[13] = biological target: Histone acetyltransferase KAT2A (Homo sapiens, UniProt Q92830); test: Binding affinity to human partial length DNA-tagged GCN5L2 expressed in bacteria by BROMOscan method
Histone acetyltransferase KAT2A, sequence (Q92830 whole entry): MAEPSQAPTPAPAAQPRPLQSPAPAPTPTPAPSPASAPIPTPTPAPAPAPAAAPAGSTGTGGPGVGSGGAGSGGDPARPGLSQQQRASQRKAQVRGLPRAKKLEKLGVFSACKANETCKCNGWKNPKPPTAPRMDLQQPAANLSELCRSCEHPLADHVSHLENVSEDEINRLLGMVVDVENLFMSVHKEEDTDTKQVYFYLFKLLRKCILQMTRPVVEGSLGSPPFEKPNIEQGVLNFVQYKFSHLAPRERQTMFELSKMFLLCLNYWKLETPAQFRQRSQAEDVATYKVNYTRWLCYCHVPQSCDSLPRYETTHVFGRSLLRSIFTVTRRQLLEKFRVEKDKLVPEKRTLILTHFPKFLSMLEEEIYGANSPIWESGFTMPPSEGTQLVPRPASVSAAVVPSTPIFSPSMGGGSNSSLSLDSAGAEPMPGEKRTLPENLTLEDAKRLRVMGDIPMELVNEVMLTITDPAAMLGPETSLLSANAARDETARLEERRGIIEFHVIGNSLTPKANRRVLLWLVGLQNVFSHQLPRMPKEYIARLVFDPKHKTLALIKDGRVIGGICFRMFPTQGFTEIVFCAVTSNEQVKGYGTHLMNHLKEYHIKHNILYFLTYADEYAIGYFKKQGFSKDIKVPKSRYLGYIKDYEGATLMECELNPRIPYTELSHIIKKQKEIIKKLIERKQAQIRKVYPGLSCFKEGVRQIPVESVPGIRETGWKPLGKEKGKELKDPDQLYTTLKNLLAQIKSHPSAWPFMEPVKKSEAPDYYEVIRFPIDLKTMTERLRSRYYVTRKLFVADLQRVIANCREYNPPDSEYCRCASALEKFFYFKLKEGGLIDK

[14] = biological target: T2, Bromodomain-containing protein 3; test: Selectivity ratio of Kd for human partial length DNA-tagged BRD3 BD1 to Kd for human partial length DNA-tagged BRD3 BD2
Target sequence in this assay (Q15059 2-726 limits assumed): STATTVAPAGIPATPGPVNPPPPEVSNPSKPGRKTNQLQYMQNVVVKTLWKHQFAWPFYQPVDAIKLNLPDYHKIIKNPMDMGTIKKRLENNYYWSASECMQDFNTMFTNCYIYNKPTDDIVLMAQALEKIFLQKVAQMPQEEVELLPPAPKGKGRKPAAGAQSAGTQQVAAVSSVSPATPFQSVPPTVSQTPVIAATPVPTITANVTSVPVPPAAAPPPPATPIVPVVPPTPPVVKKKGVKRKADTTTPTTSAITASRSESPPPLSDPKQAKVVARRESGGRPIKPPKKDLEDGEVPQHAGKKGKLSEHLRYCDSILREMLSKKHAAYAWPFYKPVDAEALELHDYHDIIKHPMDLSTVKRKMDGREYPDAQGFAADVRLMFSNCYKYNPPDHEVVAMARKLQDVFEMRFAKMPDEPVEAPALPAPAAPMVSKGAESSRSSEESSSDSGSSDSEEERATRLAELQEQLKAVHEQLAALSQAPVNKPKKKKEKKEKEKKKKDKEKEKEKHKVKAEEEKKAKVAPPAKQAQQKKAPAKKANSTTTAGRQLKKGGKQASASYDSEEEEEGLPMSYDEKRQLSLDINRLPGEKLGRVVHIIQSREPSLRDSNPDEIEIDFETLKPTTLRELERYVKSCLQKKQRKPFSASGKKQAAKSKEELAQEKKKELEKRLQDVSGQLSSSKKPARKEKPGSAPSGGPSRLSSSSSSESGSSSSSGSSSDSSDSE

Peregrin [15] = biological target: T1, Peregrin; test: Binding affinity to human partial length DNA-tagged BRPF1 expressed in bacterial by BROMOscan method
Homo sapiens [16] = species: Homo sapiens; test: Selectivity ratio of Kd for human partial length DNA-tagged BRPF1 to Kd for human partial length DNA-tagged BRD4 isoform long BD2
[17] = biological target: T3, Bromodomain testis-specific protein; test: Selectivity ratio of Kd for human partial length DNA-tagged BRDT isoform b BD1 to Kd for human partial length DNA-tagged BRDT isoform b BD2
[18] = biological target: T2, Bromodomain-containing protein 3; test: Binding affinity to human partial length DNA-tagged BRD3 BD2 expressed in bacterial by BROMOscan method
Target sequence in this assay (Q15059 whole entry): as the sequence (Q15059 whole entry) above

[19] = biological target: Bromodomain-containing protein 2 (Homo sapiens, UniProt P25440); test: Inhibition of human BRD2 BD2 after 30 mins by TR-FRET assay
Bromodomain-containing protein 2, sequence (P25440 whole entry): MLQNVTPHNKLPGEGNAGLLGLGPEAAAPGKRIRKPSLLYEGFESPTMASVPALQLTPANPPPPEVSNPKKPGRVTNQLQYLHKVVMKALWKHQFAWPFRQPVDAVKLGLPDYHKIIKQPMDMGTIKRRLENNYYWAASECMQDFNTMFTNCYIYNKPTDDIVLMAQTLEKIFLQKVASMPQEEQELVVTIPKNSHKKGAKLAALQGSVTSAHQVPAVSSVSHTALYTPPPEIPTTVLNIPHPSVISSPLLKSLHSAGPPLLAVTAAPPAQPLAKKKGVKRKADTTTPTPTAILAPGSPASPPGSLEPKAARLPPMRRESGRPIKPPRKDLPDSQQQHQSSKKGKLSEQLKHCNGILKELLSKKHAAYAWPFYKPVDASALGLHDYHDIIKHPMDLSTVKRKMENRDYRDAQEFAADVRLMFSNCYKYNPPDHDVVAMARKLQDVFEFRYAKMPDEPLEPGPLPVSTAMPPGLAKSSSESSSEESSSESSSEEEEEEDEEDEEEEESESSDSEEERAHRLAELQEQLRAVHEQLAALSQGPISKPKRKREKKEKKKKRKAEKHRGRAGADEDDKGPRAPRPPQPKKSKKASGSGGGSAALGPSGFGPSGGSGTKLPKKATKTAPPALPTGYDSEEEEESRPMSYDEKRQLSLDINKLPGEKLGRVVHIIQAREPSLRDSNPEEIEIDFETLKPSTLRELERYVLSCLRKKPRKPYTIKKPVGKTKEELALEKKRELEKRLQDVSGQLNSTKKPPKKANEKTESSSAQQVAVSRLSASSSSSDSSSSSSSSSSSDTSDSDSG

[20] = biological target: Chromatin remodeling regulator CECR2 (Homo sapiens, UniProt Q9BXF3); test: Binding affinity to human partial length DNA-tagged CECR2 expressed in bacteria by BROMOscan method
[21] = biological target: Bromodomain-containing protein 4 (Homo sapiens, UniProt O60885, Y97A)
[22] = biological target: T3, Bromodomain testis-specific protein; test: Inhibition of BRDT BD2 (unknown origin) after 30 mins by TR-FRET assay

CC(=O)N1c2ccc(C3=CCNCC3)cc2N(Cc2ccccc2CO)C[C@@H]1C1CC1
pKd [1]: < 4.52
pIC50 (Blood): 6.00
pKd [2]: < 4.52
pKd [3]: < 4.52
pIC50 (Peregrin [4]): 4.70
Ratio IC50 (Homo sapiens [5]): 25
pKd [6]: < 4.52
pKd [7]: < 4.52
pKd [8]: < 4.52
IC50 (PBMC): 0.0398 µM
pIC50 [9]: 7.30
pKd [10]: 4.82
pIC50 [11]: 5.80
pKd [12]: < 4.52
pKd (Protein polybromo-1): < 4.52
pKd [13]: < 4.52
Selectivity ratio [14]: 47
pKd (Peregrin [15]): 5.61
Selectivity ratio (Homo sapiens [16]): 372
Selectivity ratio [17]: 91
pKd [18]: 7.71
pIC50 [19]: 6.50
pKd [20]: < 4.52
pIC50 [21]: 7.20
pIC50 [22]: 6.70
